# From patent publication US20240139149A1, “THERAPEUTIC USES OF UROLITHIN DERIVATIVES” (Vandria SA, priority 2022, published 2024)
# Entries after “also recorded” stand apart in the source; their conditions may differ.
# Tested on: aged mice injected with Aβ1-42
# Assay: Mouse model of Alzheimer's disease, intrahippocampal injection of Aβ1-42 oligomers
# Type: in vivo
# Method: A total of 18-month-old C57BL6 male mice were included in the study (n=12 per group). The animals were housed up to 4 to a cage, in clear polycarbonate cages with a stainless steel mesh lid and floor in a day/night inversed cycle (12 h/12 h). Drinking water and food were supplied ad libitum to each cage. The animals were kept for a period of acclimation of a minimum of 5 days before any handling.
# All mice were subjected to surgery and were injected with 2 μL of vehicle or of A 1-42 solution. Aβ1-42 peptide (Bachem) was dissolved in the vehicle, at an initial concentration of 100 μM (the mother preparation was characterized by automatic WB, and precisely contained 15% of AβO). This solution was gently agitated for 3 days at 37° C. in the dark before any use until the day of the surgery.
# The Aβ1-42 preparation was bilaterally injected into the […] of the CA1 area of the hippocampus (at three different depths). A total of 2 μL/side of A 1-42 preparation (100 μM), or vehicle, were bilaterally injected with a Hamilton syringe in the CA1 area of the hippocampus (0.2 μL/min with an Elite Nanomite syringe pump).
# Vehicle (0.5% carboxy methyl cellulose (CMC)) or 33 at 1 mg/kg/d was administrated daily by gavage (per os: p.o). The treatment started 1 day after the surgery (D+1) and lasted until the end of the study (D+27). The study was stopped 4 weeks after the surgery (on D28).
# The week before the surgery, a training session was performed, for habituation (5 minutes) to the maze. Fourteen (14) days after the surgery, mice were tested for short-term memory deficit in the Y-maze test.
# The test was based on two trials: • Trial 1. Mice were allowed to freely explore two arms of the Y-maze during 5 min. The third arm remained closed during the trial. At the end of the 5 min, the animal was placed for 3 min in an empty cage. The Y-maze was cleaned with acetic acid to neutralize odors. • Trial 2. Mice were then allowed to freely explore the three arms of the Y-maze during 5 min. This trial corresponds to the test session.
# Both trials were recorded by a video camera using Ethovision system (Noldus). The following items were automatically recorded: a) total distance in the Y-maze and b) the time spent in each arm.
# At the end of the experiment (on day 28), 5 mice per group were deeply anesthetized and plasma samples were collected. Mice were then perfused with cold PBS (3 minutes), and cold paraformaldehyde (PFA) 4% in PBS (for 3 minutes).
# Six (n=6) brain sections per animal were processed and incubated for 24 hours at 4° C. or 2 hours at room temperature with selected antibodies (Abs). The following antibodies were used: • NeuN: Rabbit polyclonal antibody anti-NeuN (1/1000). • Iba1: Rabbit polyclonal antibody anti-Iba1 (1/500). • Tau phospho Ser212/Thr214 (AT100): Mouse monoclonal antibody anti-AT100 (1/200).
# Images were acquired with a confocal microscope LSM 900 with Zen software at 20× magnification (Zeiss) using the same acquisition parameters (automatic acquisition). […] The following read-outs were measured: • Number of NeuN positive pyramidal cells in the CA1 area. • Activation of Iba1-positive microglial cells in the CA1 area. • Activation of AT100 positive neurons in the CA1 area.
# Results were analyzed using GraphPad Prism software version 8.0.2. *p<0.05 after a One-way or Two-way ANOVA followed by Fisher's test was considered significant.
structure (smiles),measurement,setting,value
"O=c1oc2cc(O)ccc2c2ccc(OC3CCOCC3)cc12 [compound 33, 3-hydroxy-8-((tetrahydro-2H-pyran-4-yl)oxy)-6H-benzo[c]chromen-6-one]","short-term spatial memory (time in new arm, Y-maze)","1 mg/kg daily oral, 14 days post-surgery",able to prevent; also recorded: beneficial effects
same,AT100 (hyperphosphorylated Tau) in neurons,"1 mg/kg daily, day 1 to day 28",decrease
same,activation of Iba1(+) microglial cells,"1 mg/kg daily, day 1 to day 28",significantly decrease
same,survival of NeuN(+) neurons in CA1,"1 mg/kg daily, day 1 to day 28",significantly improved
same,total distance traveled in Y-maze,"1 mg/kg/d p.o., 14 days post-surgery",not different between groups
